Counter-ions that a name gives are not always drawn.

This assay deals with PDEIV. The assay is described as follows: Inhibitory activity towards phosphodiesterase type IV isozyme ([3H] cAMP substrate, in the presence of 10 μM cilostazol). Particulars: type IV isozyme from porcine artery, 30° C. It counts as biochemical.

In the case of `CCOc1ccc(CC2=NCCc3cc(OCC)c(OCC)cc32)cc1OCC` [Compound 4, 1-(3',4'-Diethoxybenzyl)-6,7-diethoxy-3,4-dihydroisoquinoline hydrochloride], the IC50 (pH 7.5, hydrochloride) stood at 8.1 µM.
As for `CCOc1ccc(CC2=NCCc3cc(OCC)c(OCC)cc32)cc1OCC` [Compound 6, 1-(3',4'-Diethoxybenzyl)-6,7-diethoxy-3,4-dihydroisoquinolinium-theophylline-7-acetate monohydrate], the half-maximal inhibitory concentration (IC50) (pH 7.5, monohydrate) amounted to 17.2 µM.
Consider `CCCCOc1cc(CC2CNC(=O)N2)ccc1OC` (stereo not drawn) [Ro20-1724, reference compound], for which, for the setting “pH 7.5”, the IC50 amounted to 26.1 µM.

These data come from patent US5556862A, “Pharmaceutical compositions containing isoquinoline derivatives” (Nippon Zoki Pharmaceutical Co., Ltd., priority 1993, dated 1996).
